Data: US7507792B2, “MDA-7 proteins and methods of use thereof” (The Trustees of Columbia University In The City of New York, priority 1993, dated 2009)
“Also recorded” adds a separate entry of the source. Starred links: 1 amine or outer side, 2 acyl side, 3 side chain; linkers in the order of their positions; H or OH if unused. Positions of bridges follow the written chain, without caps; N, C: chain ends. Non-standard residues stand in square brackets, D forms with d. Residues, ends and D or L forms follow the SMILES beside them. Chains are numbered I, II in the order given. Actinocin(9to1) = Cc1c2oc3c(C)ccc(C(=O)[*:1])c3nc-2c(C(=O)[*:2])c(N)c1=O; NMeV = CN[C@H](C(=O)O)C(C)C; Sar = CNCC(=O)O

Tests used:
mda-8 = mda-8 expression (Northern blotting); format: cell-based, human; conditions: H0-1
Experimental: (§1) The mass excision of the library was performed using ExAssist helper phage as described above. The SOLR strain of Escherichia coli and cDNA phagemids were mixed at 37° C. for 15 min and plated onto LB plates containing ampicillin and IPTG/X-gal. White colonies were chosen at random, isolated and grown in LB medium. Plasmid minireps and restriction enzyme digestions were performed to confirm the presence of inserts. The inserts were isolated and used as robes for Northern blotting analysis (5,25). […] Radiolabeled probes were generated by random oligonucleotide priming (25). Prehybridization, hybridization, posthybridization washes, and autoradiography were performed as described (5,18,25).

mda-7 = mda-7 expression (Northern blotting, RT-PCR); format: cell-based, human; conditions: for mda-7 expression: H0-1
Experimental: as §1

mda-5 = mda-5 expression (Northern blotting); format: cell-based, human; conditions: H0-1
Experimental: as §1

[1] = tested on: H0-1 human melanoma cell line; assay: 96-h growth suppression (cell number by Coulter Counter); format: cell-based; conditions: H0-1 cells, degree of initial 96 hr growth suppression versus untreated control
Experimental: FIG. 1A-B Effect of continuous exposure to various growth and differentiation modulating agents on the 96-h growth of the human melanoma cell line, H0-1. Cells were seeded at 5×10^4/35-mm tissue culture plate and 24 h later the medium was changed with the indicated compounds. Cell numbers were determined by Coulter Counter after 96-h growth. Further details can be found in Materials and Methods.
The H0-1 cell line is a melanotic melanoma derived from a person and was used between passage 100 and 125 (6,8,13). H0-1 cells were kindly provided by Dr. Beppino C. Giovanella, Stehlin Foundation for Cancer Research, Houston, Tex. Cultures were grown at 37° C. in a 95% air 5% CO2-humidified incubator in Dulbecco's modified Eagle's medium (DMEM) supplemented with 10% fetal bovine serum (DMEM-10) (Hyclone, Logan, Utah). H0-1 cells were maintained in the logarithmic stage of growth by subculturing (1:5 or 1:10) prior to confluency approximately every 4 to 5 days. […] Total cell numbers were determined after days 4, 7, 14, and 21, using a ZM Coulter Counter, and viable cell numbers were determined by trypan blue dye exclusion (6). […] Increases in cell number (two or more population doublings) after removal of the inducing agent(s) was considered reversible growth suppression. […] Conditioned medium was collected from treated cultures, contaminating cells were removed by centrifugation at 1000 rpm/10 min., and conditioned medium was stored at 4° C. until assayed for gene modulatory activity. Control conditioned medium was obtained as experimental conditioned medium from cells receiving only a medium change 24 hours after plating in the absence of test compound(s) and growth for 72 hours in DMEM-10.

mda-6 = mda-6 expression (Northern blotting); format: cell-based, human; conditions: H0-1
Experimental: as §1
Total cytoplasmic RNA was isolated and Northern blotting hybridization was performed as described (Reddy et al., 1991; Su et al., 1991; Jiang et al., 1992). Ten μg of RNA was denatured with glyoxal/DMSO, electrophoresed on 1.0% agarose gels, transferred to nylon membranes and hybridized to a ^32P-labeled p53 probe (Baker et al., 1990). The nylon membrane was stripped and hybridized to a ^32P-labeled mda-6 probe (Jiang and Fisher, 1993) and then after a second stripping the membrane was hybridized to a ^32P-labeled rat GAPDH probe (Fort et al., 1985), as described previously (Reddy et al., 1991; Su et al., 1991; Jiang et al., 1992). Following hybridization, the filters were washed and exposed for autoradiography (Reddy et al., 1991; Su et al., 1991; Jiang et al., 1992). mda-6 and GAPDH gene expression were also determined by reverse transcription-polymerase chain reaction (RT-PCR) as described (Adollahi et al., 1991; Lin et al., 1994; Jiang et al., 1994b). Total cytoplasmic RNA was treated with 0.5 units DNase (Boehringer-Mannheim Biochemicals)/μg RNA in 15% glycerol, 10 mM Tris, pH 7.5, 2.5 mM MgCl2, 0.1 mM EDTA, 80 mM KCl, 1 mM CaCl2 and 1 unit/ml RNasin (Promega) at 30° C. for 10 min. RNA was extracted with phenol-chloroform, precipitated with sodium acetate/ethanol and RNA pellets were resuspended in diethylpyrocarbonate-treated H2O. One μg of total RNA was reverse transcribed with 200 units of murine leukemia virus reverse transcriptase (Bethesda Research Laboratories) in 20 μl containing 1 mM deoxyribonucleotide triphosphates, 4 mM MgCl2, 10 mM Tris, pH 8.3, 50 mM KCl, 0.001% gelatin and 0.2 μg oligo-dT primer. Samples were adjusted to 100 μl with buffer containing 0.2 mM deoxyribonucleotide triphosphates, 2 mM MgCl2, 10 mM Tris, pH 8.3, 50 mM KCl and 0.001% gelatin. Fifty pmol of each primer, 1.5 units Taq DNA polymerase (Perkin-Elmer Cetus) were added and samples were covered with mineral oil, heated at 95° C. for 5 min and subjected to 25 cycles of PCR in a Perkin-Elmer Thermal Cycler using 1 min denaturation at 94° C., 2 min annealing at 55° C. and 3 min polymerization at 72° C. After extraction with chloroform, 20 μl of products were electrophoresed, blotted onto nylon filters and hybridized with an mda-6 or GAPDH specific probe. The mda-6 primers were 5′ to 3′ […] (SEQ ID NO:26) and […] (SEQ ID NO:27)(corresponding to nt 1527 to 1546) (GenBank accession number U09579); and the GAPDH primers were 5′ to 3′ […] (SEQ ID NO:28)and […] (SEQ ID NO:29)(corresponding to nt 1070 to 1053) (Tokunaga et al., 1987).

H0-1 cells = assay: Northern blotting analysis of steady-state mRNA levels; format: cell-based, human; conditions: FIG. 1 concentrations
Experimental: Steady-state levels of specific mRNAs were determined by Northern blotting analysis of total RNA probed with appropriate ^32P-labeled gene probes as described previously (14-16). RNAs were analyzed from cells treated with inducer for 24 hours, treated for 24 hours with inducer followed by growth for 72 hours in the absence of inducer, or treated continuously for 96 hours with the inducer. The concentration of inducing compounds used were the same as those used for growth studies. The effect of conditioned medium on gene expression changes was determined by treating H0-1 cells for 24 hours with a 1:2 dilution of conditioned medium (equal volumes of conditioned medium and DMEM supplemented with 10% fetal bovine serum (DMEM-10) or for 96 hours with a 1:4 dilution of conditioned medium (1 vol. of conditioned medium to 3 vol. of DMEM-10). The probes used in the present study were specific for β-actin (17), γ-actin (17), c-jun (18), c-myc (19), fibronectin (20), gro/MGSA (21), HLA Class I antigen (22), HLA Class II antigen (HLA-DRβ) (22), α5 integrin (23), β1 integrin (24), ISG-15 (25), ISG-54 (25), jun-B (26), and tenascin (27). Northern blots were also probed with a ^32P-labeled GAPDH gene (15) to verify similar mRNA expression under the various experimental conditions. Following hybridization, the filters were washed and exposed for autoradiography.

mda-4 = mda-4 expression (Northern blotting); format: cell-based, human; conditions: H0-1
Experimental: as §1

mda-9 = mda-9 expression (Northern blotting); format: cell-based, human; conditions: H0-1
Experimental: as §1

[2] = 96 hours, doses of FIG. 15 legend
[3] = 24 hours, doses of FIG. 19, phenyl butyrate 24 hours, 4 days or 7 days
[4] = 24 hours, doses of FIG. 19, phenyl butyrate 24 hours, 4 or 7 days

Row | Compound | mda-8 expression (mda-8; [3]) | mda-7 expression (mda-7; [3]) | mda-5 expression (mda-5; [3]) | mda-6 expression (mda-6; [4]) | mda-4 expression (mda-4; [3]) | mda-9 expression (mda-9; [3]) | also measured
1 | COc1c(C)c2c(c(O)c1C/C=C(\C)CCC(=O)O)C(=O)OC2 [MPA, mycophenolic acid] |  |  |  |  |  |  | mda-8 expression (mda-8; [2]): No change in expression; mda-7 expression (mda-7; [2]): Increased expression; also recorded: induced; mda-5 expression (mda-5; [2]): No change in expression; Growth Suppression (reversible) ([1]; Table 1): 3+ (3+ = ~50 to 60% reduction in growth in comparison with untreated control cultures); Growth Suppression (reversible) ([1]; Table 2): − (− = no significant change in growth (<10% reduction in growth in comparison with untreated control cultures)); mda-6 expression (mda-6; [2]): no significant or reduced alteration in expression; HLA Class I antigen gene expression (H0-1 cells; 96 h): did not significantly alter; fibronectin expression (H0-1 cells; 96 h): most effective single agents; induction of gro/MGSA gene expression (H0-1 cells; 96 h): did not; tenascin expression (H0-1 cells; 96 h): enhanced tenascin expression; c-jun and jun-B expression (H0-1 cells; 96 hours): increase; c-myc expression (H0-1 cells; 96 hours): downregulated; mda-4 expression (mda-4; [2]): No or only a small change in expression; mda-9 expression (mda-9; [2]): No change in mda-9 expression
2 | COc1cc([C@@H]2c3cc4c(cc3[C@@H](O[C@@H]3O[C@@H]5CO[C@@H](C)O[C@H]5[C@H](O)[C@H]3O)[C@H]3COC(=O)[C@H]23)OCO4)cc(OC)c1O [VP-16] | No change in expression | No induction in mda-7 expression | No change in expression | increased expression | No or only a small change in expression | Increased expression | 
3 | Cc1c2oc3c(C)ccc(C(=O)N[C@@H]4C(=O)N[C@H](C(C)C)C(=O)N5CCC[C@H]5C(=O)N(C)CC(=O)N(C)[C@@H](C(C)C)C(=O)O[C@@H]4C)c3nc-2c(C(=O)N[C@@H]2C(=O)N[C@H](C(C)C)C(=O)N3CCC[C@H]3C(=O)N(C)CC(=O)N(C)[C@@H](C(C)C)C(=O)O[C@@H]2C)c(N)c1=O [actinomycin D] (I: T[dV]P[Sar][NMeV] / II: T[dV]P[Sar][NMeV]; ester I:1-I:C, II:1-II:C; linker I:N-II:N via Actinocin(9to1)) | Increased expression | No induction in mda-7 expression | No change in expression | increased expression | No or only a small change in expression | No change in mda-9 expression | 
4 | COc1cccc2c1C(=O)c1c(O)c3c(c(O)c1C2=O)C[C@@](O)(C(=O)CO)C[C@@H]3O[C@H]1C[C@H](N)[C@H](O)[C@H](C)O1 [adriamycin, Adriamycin] | Increased expression | increased mda-7 expression | No change in expression | increased expression | No or only a small change in expression |  | 
5 | N.N.[Cl][Pt][Cl] [cis-platinum] | Increased expression | No induction in mda-7 expression | No change in expression | Decreased expression | increased expression | No change in mda-9 expression | 
6 | COS(C)(=O)=O [methyl methanesulfonate] |  |  |  |  |  |  | mda-6 expression (mda-6; 2 h exposure to 25 μg/ml): Elevated mda-6 expression
7 | CCCC(=O)Oc1ccccc1 [phenyl butyrate] | No change in expression | No induction in mda-7 expression | No change in expression | Decreased expression | No or only a small change in expression | Increased expression | 
8 | CC[C@]1(O)C[C@H]2CN(CCc3c([nH]c4ccccc34)[C@@](C(=O)OC)(c3cc4c(cc3OC)N(C=O)[C@H]3[C@@](O)(C(=O)OC)[C@H](OC(C)=O)[C@]5(CC)C=CCN6CC[C@]43[C@@H]65)C2)C1 [vincristine, Vincristine] | No change in expression | increased mda-7 expression | No change in expression | No change in mda-6 expression | No or only a small change in expression | No change in mda-9 expression | 
9 | IFN-α | No change in expression | No induction in mda-7 expression | increased expression | Decreased expression | increased expression | Increased expression | 
10 | TNF-α | No change in expression | No induction in mda-7 expression | No change in expression | Decreased expression | No or only a small change in expression | Increased expression | 
11 | phenylacetate |  |  |  |  |  |  | mda-7 expression (RT-PCR) (mda-7; LAN human neuroblastoma cells, 5 days): induced
